This is an account of results in patent publication US20240368150A1 (Hoffmann-La Roche Inc., priority 2021, published 2024).

Assay [1] relates to primary human T-cells.
Another assay concerns the target hDGKzeta(1-928)-N-His (Homo sapiens (Human), UniProt Q13574). In words: DGKzeta ADP Glo assay (in vitro DGK inhibition). Type of assay: biochemical. Particulars: DLG 125 uM, ATP 50 μM, DGK ζ 2 nM, 1 hour reaction. How it is done: (§1) DGK α and ζ kinase use ATP to phosphorylate the substrate 1,2-dilauroyl-sn-glycerol (DLG, incorporated in the liposomes). ATP is converted to ADP as a result of this enzymatic reaction. After the kinase reaction, an ATP-depletion reagent is added to terminate the kinase reaction and deplete any remaining ATP, leaving only ADP. Second, a detection reagent is added to simultaneously convert ADP to ATP and allow the newly synthesized ATP to be converted to light using a coupled luciferase/luciferin reaction.
(§2) Purification of both enzymes was performed as previously described by Takahashi et al., PeerJ, 2018 (Takahashi, D.; Sakane, F. Expression and purification of human diacylglycerol kinase alpha from baculovirus-infected insect cells for structural studies. PeerJ 2018, 6, No. e5449).
(§3) A concentrated liposome solution was prepared in assay buffer without DTT and BSA: 2 mM of DLG in 21 mM of total liposome (2 mM DLG/8 mM PS/11 mM PC). […] The reactions were started by addition of DGK α and ζ kinases at 4 nM and 2 nM final concentrations, respectively. After 1 hour reaction, the amount of ADP formed was detected with the ADP-Glo kinase assay (Promega) according to the manufacturer instructions. Compounds were added in 11-points dose response, starting at […], 1:3 dilutions, with a final DMSO concentration of 2%. The multidrop combi was used as a liquid handler and luminescence was read with 0.5 s by the envision reader (PE).

The subject of assay [2] is primary human T-cells. In words: Proliferation assay after 5 days (CellTiter-Glo, CD3 stimulation; PBS counter screen). Type of assay: cell-based. Particulars: CD3 stimulation; for Emax proliferation (% activation) / Emax: 5 days, normalized to reference compound A1 as stimulator control = 100%, DMSO neutral control; for EC50: primary human T-cells, CellTiter-Glo after 5 days, EC50 of fitted sigmoidal curve, read-out: Tcell Proliferation CD3 EC50; for Emax: read-out: Emax proliferation (% activation). An outline of the steps:
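ATP-based luminescence (CellTiter-Glo 2.0, room temperature) measured proliferation 5 days after compound addition to CD3-stimulated or unstimulated primary human T-cells. Flags marked compounds that lowered viability or activated unstimulated cells.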
In general terms: ATP-based viability assays read luminescence as a measure of living cells.

In the next assay the target is hDGKalpha(1-735)-N-His (Homo sapiens (Human), UniProt P23743). In words: DGKalpha ADP Glo assay (in vitro DGK inhibition). Particulars: DLG 125 uM, ATP 25 μM, DGK α 4 nM, 1 hour reaction. The format is biochemical. The protocol: as §1, §2, §3
hDGKalpha(1-735)-N-His, sequence (P23743 whole entry): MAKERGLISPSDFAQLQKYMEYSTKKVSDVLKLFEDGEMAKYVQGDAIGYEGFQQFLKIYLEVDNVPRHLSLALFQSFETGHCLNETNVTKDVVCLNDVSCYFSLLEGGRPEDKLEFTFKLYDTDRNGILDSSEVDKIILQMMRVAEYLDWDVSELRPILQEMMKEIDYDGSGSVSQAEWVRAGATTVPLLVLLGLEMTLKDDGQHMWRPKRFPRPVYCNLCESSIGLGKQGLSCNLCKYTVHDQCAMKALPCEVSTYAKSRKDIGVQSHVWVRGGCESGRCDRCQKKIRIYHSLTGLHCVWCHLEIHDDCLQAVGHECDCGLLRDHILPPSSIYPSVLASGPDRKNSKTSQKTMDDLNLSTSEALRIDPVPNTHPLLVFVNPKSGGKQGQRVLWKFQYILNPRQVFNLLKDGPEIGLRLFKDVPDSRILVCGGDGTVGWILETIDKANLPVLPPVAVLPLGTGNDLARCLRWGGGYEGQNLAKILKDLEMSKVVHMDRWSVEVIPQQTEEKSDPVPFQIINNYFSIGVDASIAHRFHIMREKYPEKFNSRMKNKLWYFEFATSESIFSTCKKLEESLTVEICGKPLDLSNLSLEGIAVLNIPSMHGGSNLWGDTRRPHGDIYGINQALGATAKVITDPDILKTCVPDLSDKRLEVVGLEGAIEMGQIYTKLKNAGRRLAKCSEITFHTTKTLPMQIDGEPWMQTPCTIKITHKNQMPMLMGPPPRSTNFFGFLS

Usually IC50 stands for the concentration at which inhibition is half-maximal.

Read-outs that look alike come from different tables or passages of the source.

hDGKzeta(1-928)-N-His, sequence (Q13574 whole entry): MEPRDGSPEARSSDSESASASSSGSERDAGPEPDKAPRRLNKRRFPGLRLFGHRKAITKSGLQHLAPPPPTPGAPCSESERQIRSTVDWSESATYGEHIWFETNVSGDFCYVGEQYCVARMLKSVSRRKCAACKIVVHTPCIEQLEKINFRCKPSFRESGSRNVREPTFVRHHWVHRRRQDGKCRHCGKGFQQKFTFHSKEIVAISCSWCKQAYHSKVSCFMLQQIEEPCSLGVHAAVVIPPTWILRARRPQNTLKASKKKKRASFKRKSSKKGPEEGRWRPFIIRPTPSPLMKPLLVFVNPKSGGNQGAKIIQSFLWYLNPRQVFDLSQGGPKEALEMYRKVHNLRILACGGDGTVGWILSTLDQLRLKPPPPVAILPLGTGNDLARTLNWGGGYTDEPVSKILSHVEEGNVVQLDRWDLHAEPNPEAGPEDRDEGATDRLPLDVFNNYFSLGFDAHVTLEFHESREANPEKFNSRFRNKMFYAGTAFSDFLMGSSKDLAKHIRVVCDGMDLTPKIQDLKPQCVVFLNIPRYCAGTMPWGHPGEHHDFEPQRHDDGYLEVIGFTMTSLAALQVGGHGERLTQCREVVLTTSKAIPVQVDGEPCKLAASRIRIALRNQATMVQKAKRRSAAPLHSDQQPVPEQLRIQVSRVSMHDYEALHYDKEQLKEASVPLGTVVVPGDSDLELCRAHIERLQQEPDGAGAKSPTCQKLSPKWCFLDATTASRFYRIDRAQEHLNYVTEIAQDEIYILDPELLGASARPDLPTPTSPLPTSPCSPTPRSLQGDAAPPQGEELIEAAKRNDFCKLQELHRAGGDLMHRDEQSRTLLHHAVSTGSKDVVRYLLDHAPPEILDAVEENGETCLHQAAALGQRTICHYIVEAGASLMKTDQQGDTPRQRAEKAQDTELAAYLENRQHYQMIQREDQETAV

On to `N[C@H]1C[S+]([O-])c2cc(F)c(-c3noc(N4CCOC(C(F)(F)F)C4)n3)cc2N(Cc2ccc(Cl)cc2)C1=O` (single isomer, unassigned; epimer a) [Example 213], for which the results for the EC50 with primary human T-cells [1] and in the assay with primary human T-cells [2] were 3270 nM and 1390 nM, respectively. Besides, the IC50 is 52 nM against hDGKzeta(1-928)-N-His and 2140 nM against hDGKalpha(1-735)-N-His. In the assay on primary human T-cells [2], the “Emax proliferation (% activation)” value was determined as 222 % activation.

`N[C@H]1C[S+]([O-])c2cc(F)c(-c3noc(N4CCOC5CC54)n3)cc2N(Cc2ccc(Cl)cc2)C1=O` (single isomer, unassigned; epimer b) [Example 208]: the EC50 in the assay on primary human T-cells [1] was found to be 5250 nM; in the assay on primary human T-cells [2], 5310 nM. In addition, the IC50 against hDGKzeta(1-928)-N-His is 147 nM; against hDGKalpha(1-735)-N-His, 2640 nM. Moreover, in the assay on primary human T-cells [2], the “Emax proliferation (% activation)” value turned out to be 106 % activation.

On to `N[C@H]1C[S+]([O-])c2cc(F)c(-c3noc(N4CCOC(C(F)(F)F)C4)n3)cc2N(Cc2ccc(Cl)cc2)C1=O` (single isomer, unassigned; epimer b) [Example 212], for which the EC50 turned out to be 2950 nM in the assay with primary human T-cells [1] and 338 nM in the assay with primary human T-cells [2]. Also, the figures for the IC50 on hDGKzeta(1-928)-N-His and against hDGKalpha(1-735)-N-His were 46 nM and 975 nM, respectively. In addition, the “Emax proliferation (% activation)” value in the assay with primary human T-cells [2] stood at 178 % activation.

Consider `CC(C)(CO)n1nnc(-c2cc3c(cc2F)S(=O)(=O)C[C@H](N)C(=O)N3Cc2ccc(Cl)cc2)n1` [Example 28, (3R)-3-amino-5-[(4-chlorophenyl)methyl]-8-fluoro-7-[2-(2-hydroxy-1,1-dimethyl-ethyl)tetrazol-5-yl]-1,1-dioxo-2,3-dihydro-1λ^6,5-benzothiazepin-4-one], for which the EC50 came out at 1110 nM with primary human T-cells [1] and 1260 nM in the assay on primary human T-cells [2] (Homo sapiens, T-cell, 120 h). For the same compound, the IC50 worked out at 672 nM against hDGKzeta(1-928)-N-His and 513 nM against hDGKalpha(1-735)-N-His. The Emax in the assay on primary human T-cells [2] (Homo sapiens, T-cell, 120 h) is 129%.

Take `CC(C)Oc1ccc(CN2C(=O)[C@@H](N)CS(=O)(=O)c3cc(F)c(-c4noc(C(N)C(F)(F)F)n4)cc32)cc1` (stereo partly drawn) [Example 48, (3R)-3-amino-7-[5-(1-amino-2,2,2-trifluoro-ethyl)-1,2,4-oxadiazol-3-yl]-8-fluoro-5-[(4-isopropoxyphenyl)methyl]-1,1-dioxo-2,3-dihydro-1λ^6,5-benzothiazepin-4-one]: the EC50 with primary human T-cells [1] came to 2330 nM; in the assay on primary human T-cells [2] (Homo sapiens, T-cell, 120 h), 3190 nM. Besides, the IC50 against hDGKzeta(1-928)-N-His was determined as 114 nM; on hDGKalpha(1-735)-N-His, 403 nM. In the assay on primary human T-cells [2] (Homo sapiens, T-cell, 120 h), the Emax stood at 248%.

Regarding `CC1(C)CN(c2nc(-c3cc4c(cc3F)S(=O)(=O)C[C@H](N)C(=O)N4Cc3ccc(Cl)cc3)no2)CCO1` [Example 205, (3R)-3-amino-5-[(4-chlorophenyl)methyl]-7-[5-(2,2-dimethylmorpholin-4-yl)-1,2,4-oxadiazol-3-yl]-8-fluoro-1,1-dioxo-2,3-dihydro-16,5-benzothiazepin-4-one], the EC50 with primary human T-cells [1] was found to be 1050 nM; in the assay on primary human T-cells [2] (Homo sapiens, T-cell, 120 h), 2120 nM. For the same compound, the half-maximal inhibitory concentration (IC50) was determined as 147 nM against hDGKzeta(1-928)-N-His and 299 nM at hDGKalpha(1-735)-N-His. The Emax with primary human T-cells [2] (Homo sapiens, T-cell, 120 h) is 119%.

For `CC(C)Oc1ccc(CN2C(=O)[C@@H](N)CS(=O)(=O)c3cc(F)c(-c4noc(N5CCOC6(CC6)C5)n4)cc32)cn1` [Example 214, (3R)-3-amino-8-fluoro-5-[(6-isopropoxy-3-pyridyl)methyl]-7-[5-(4-oxa-7-azaspiro[2.5]octan-7-yl)-1,2,4-oxadiazol-3-yl]-1,1-dioxo-2,3-dihydro-1λ^6,5-benzothiazepin-4-one], the EC50 in the assay with primary human T-cells [1] worked out at 1500 nM; with primary human T-cells [2] (Homo sapiens, T-cell, 120 h) it was 2140 nM. Further, the IC50 against hDGKzeta(1-928)-N-His amounted to 100 nM; against hDGKalpha(1-735)-N-His it was 214 nM. Besides, in the assay with primary human T-cells [2] (Homo sapiens, T-cell, 120 h), the Emax was determined as 275%.

For `CC(C)Oc1ccc(CN2C(=O)[C@@H](N)CS(=O)(=O)c3cc(F)c(-c4noc(N5CCOC6(CC6)C5)n4)cc32)nc1` [Example 215], the EC50 with primary human T-cells [1] was 5360 nM; with primary human T-cells [2] (Homo sapiens, T-cell, 120 h), 2170 nM. For the same compound, the half-maximal inhibitory concentration (IC50) at hDGKzeta(1-928)-N-His turned out to be 886 nM; against hDGKalpha(1-735)-N-His it was 662 nM. Besides, the Emax in the assay on primary human T-cells [2] (Homo sapiens, T-cell, 120 h) is 153%.

On to `CC(C)(C)c1nnc(-c2cc3c(cc2F)S(=O)(=O)C[C@H](N)C(=O)N3Cc2ccc(C(C)(C)C#N)cc2)o1` [Example 244, 2-methyl-2-[4-[[(3R)-3-amino-7-(5-tert-butyl-1,3,4-oxadiazol-2-yl)-8-fluoro-1,1,4-trioxo-2,3-dihydro-1λ^6,5-benzothiazepin-5-yl]methyl]phenyl]propanenitrile], for which the EC50 is 236 nM with primary human T-cells [1] and 137 nM with primary human T-cells [2] (Homo sapiens, T-cell, 120 h). The IC50 was determined as 1100 nM against hDGKzeta(1-928)-N-His and 836 nM on hDGKalpha(1-735)-N-His. For the same compound, the Emax in the assay on primary human T-cells [2] (Homo sapiens, T-cell, 120 h) turned out to be 102%.

For `CC(C)(C)c1nnc(-c2cc3c(cc2F)S(=O)(=O)C[C@H](N)C(=O)N3Cc2ccc(OC3CCCC3)cc2)o1` [Example 253, (3R)-3-amino-7-(5-tert-butyl-1,3,4-oxadiazol-2-yl)-5-[[4-(cyclopentoxy)phenyl]methyl]-8-fluoro-1,1-dioxo-2,3-dihydro-1λ^6,5-benzothiazepin-4-one], the EC50 in the assay on primary human T-cells [1] was less than 15.1 nM; in the assay with primary human T-cells [2] (Homo sapiens, T-cell, 120 h), 40.3 nM. Further, the figures for the half-maximal inhibitory concentration (IC50) at hDGKzeta(1-928)-N-His and at hDGKalpha(1-735)-N-His were 105 nM and 198 nM, respectively. Further, the Emax in the assay on primary human T-cells [2] (Homo sapiens, T-cell, 120 h) is 116%.

On to `COC(F)(c1nc(-c2cc3c(cc2F)S(=O)(=O)C[C@H](N)C(=O)N3Cc2ccc(Cl)cc2)no1)C(F)(F)F` (stereo partly drawn) [Example 292, (3R)-3-amino-5-[(4-chlorophenyl)methyl]-8-fluoro-1,1-dioxo-7-[5-(1,2,2,2-tetrafluoro-1-methoxy-ethyl)-1,2,4-oxadiazol-3-yl]-2,3-dihydro-1λ^6,5-benzothiazepin-4-one], for which the EC50 in the assay with primary human T-cells [1] came to 126 nM; in the assay on primary human T-cells [2] (Homo sapiens, T-cell, 120 h) it was 31.9 nM. Besides, the IC50 stood at 494 nM against hDGKzeta(1-928)-N-His and 528 nM at hDGKalpha(1-735)-N-His. Moreover, the Emax with primary human T-cells [2] (Homo sapiens, T-cell, 120 h) is 179%.

On to `CC(C)(C)NC(=O)c1nc(-c2cc3c(cc2F)S(=O)(=O)C[C@H](N)C(=O)N3Cc2ccc(Cl)cc2)no1` [Example 293, 3-[(3R)-3-amino-5-[(4-chlorophenyl)methyl]-8-fluoro-1,1,4-trioxo-2,3-dihydro-1λ^6,5-benzothiazepin-7-yl]-N-tert-butyl-1,2,4-oxadiazole-5-carboxamide], for which the EC50 in the assay on primary human T-cells [1] is 3310 nM; with primary human T-cells [2] (Homo sapiens, T-cell, 120 h), 2070 nM. Further, the IC50 amounted to 1200 nM on hDGKzeta(1-928)-N-His and 1150 nM at hDGKalpha(1-735)-N-His. The Emax with primary human T-cells [2] (Homo sapiens, T-cell, 120 h) was 92%.

With `CC(N)(c1nc(-c2cc3c(cc2F)S(=O)(=O)C[C@H](N)C(=O)N3Cc2ccc(Cl)cc2)no1)C(F)(F)F` (stereo partly drawn) [Example 297, (3R)-3-amino-7-[5-(1-amino-2,2,2-trifluoro-1-methyl-ethyl)-1,2,4-oxadiazol-3-yl]-5-[(4-chlorophenyl)methyl]-8-fluoro-1,1-dioxo-2,3-dihydro-1λ^6,5-benzothiazepin-4-one], the EC50 in the assay with primary human T-cells [1] came out at 169 nM; in the assay with primary human T-cells [2] (Homo sapiens, T-cell, 120 h), 219 nM. Besides, the results for the half-inhibitory concentration (IC50) against hDGKzeta(1-928)-N-His and on hDGKalpha(1-735)-N-His were 357 nM and 373 nM, respectively. For the same compound, the Emax in the assay with primary human T-cells [2] (Homo sapiens, T-cell, 120 h) worked out at 157%.

`N[C@H]1CS(=O)(=O)c2cc(F)c(-c3noc(C(N)(c4ccc(F)cc4)C(F)(F)F)n3)cc2N(Cc2ccc(Cl)cc2)C1=O` (stereo partly drawn) [Example 300, (3R)-3-amino-7-[5-[1-amino-2,2,2-trifluoro-1-(4-fluorophenyl)ethyl]-1,2,4-oxadiazol-3-yl]-5-[(4-chlorophenyl)methyl]-8-fluoro-1,1-dioxo-2,3-dihydro-1λ^6,5-benzothiazepin-4-one]: the EC50 was 243 nM in the assay on primary human T-cells [1] and 127 nM in the assay with primary human T-cells [2] (Homo sapiens, T-cell, 120 h). The results for the half-inhibitory concentration (IC50) against hDGKzeta(1-928)-N-His and at hDGKalpha(1-735)-N-His were 481 nM and 3940 nM, respectively. For the same compound, the Emax in the assay on primary human T-cells [2] (Homo sapiens, T-cell, 120 h) was 193%.

Take `CC(C)Oc1ccc(CN2C(=O)[C@@H](N)CS(=O)(=O)c3cc(F)c(-c4noc(C5CN(C)CC(F)(F)C5)n4)cc32)cc1` (stereo partly drawn) [Example 345, (3R)-3-amino-7-[5-(5,5-difluoro-1-methyl-3-piperidyl)-1,2,4-oxadiazol-3-yl]-8-fluoro-5-[(4-isopropoxyphenyl)methyl]-1,1-dioxo-2,3-dihydro-1λ^6,5-benzothiazepin-4-one]: the 50% inhibitory concentration (IC50) against hDGKzeta(1-928)-N-His is 207 nM; on hDGKalpha(1-735)-N-His, 343 nM. In addition, the Emax in the assay on primary human T-cells [2] (Homo sapiens, T-cell, 120 h) is 152%.

`N[C@H]1CS(=O)(=O)c2ccc(-c3nnc(N4CCOC(C(F)F)C4)o3)cc2N(Cc2ccc(Cl)cc2)C1=O` (stereo partly drawn) [Example 409, (3R)-3-amino-5-[(4-chlorophenyl)methyl]-7-[5-[2-(difluoromethyl)morpholin-4-yl]-1,3,4-oxadiazol-2-yl]-1,1-dioxo-2,3-dihydro-1λ^6,5-benzothiazepin-4-one] showed an IC50 against hDGKzeta(1-928)-N-His of 795 nM. For the same compound, in the assay with primary human T-cells [2] (Homo sapiens, T-cell, 120 h), the Emax worked out at 95% and the EC50 is 3880 nM. Further, the IC50 at hDGKalpha(1-735)-N-His is 2870 nM.
